{"source": "patent US11331299B2", "about": "“Medicinal use of serrulatane diterpenes” (The University of Sydney, priority 2016, dated 2022)", "test_system": "280 human cancer cell lines", "assay": "OncoPanel cell proliferation assay (10-day)", "assay_type": "cell-based", "settings": "Homo sapiens; for GI50: read-out: Cell Count GI50; for IC50: read-out: Cell Count IC50; for EC50: read-out: Cell Count EC50", "key": {"[1]": {"settings": "C-4-II, C-4 II, Female GU - Cervix"}, "[2]": {"settings": "C-33-A, C-33A, Female GU - Cervix"}, "[3]": {"settings": "CAL-62, CAL-62, Endocrine - Thyroid"}, "[4]": {"settings": "CCF-STTG1, CCF-STTG1, CNS - Glioma"}, "[5]": {"settings": "CGTH-W-1, CGTH-W-1, Endocrine - Thyroid"}, "[6]": {"settings": "CHP-212, CHP-212, CNS - Neuroblastoma"}, "[7]": {"settings": "COLO-320-HSR, Colo 320 HSR, Colon"}, "[8]": {"settings": "COLO-829, COLO 829, Skin (Melanoma)"}, "[9]": {"settings": "COR-L105, COR-L105, Lung - NSCLC"}, "[10]": {"settings": "Ca-Ski, Ca Ski, Female GU - Ovary"}}, "note": "Like-named read-outs stand apart in the source and are kept apart here."}
{"smiles": "CC(C)=CCC[C@@H]1C(O)Oc2c(C)cc(O)c3c2[C@H]1CC[C@H]3C", "note": "(some centres unmarked) [Compound 2, 5,18-epoxyserrulat-14-en-8,18-diol]", "values": [{"measurement": "GI50", "setting": "BT-474, BT474, Breast", "value": "> 30", "unit": "µM"}, {"measurement": "IC50", "setting": "BT-474, BT474, Breast", "value": "> 30", "unit": "µM"}, {"measurement": "EC50", "setting": "BT-549, BT-549, Breast", "value": 25.8, "unit": "µM"}, {"measurement": "GI50", "setting": "BT-549, BT-549, Breast", "value": 25.8, "unit": "µM"}, {"measurement": "IC50", "setting": "BT-549, BT-549, Breast", "value": 25.9, "unit": "µM"}, {"measurement": "EC50", "setting": "BV-173, BV-173, Leukemia", "value": 9.33, "unit": "µM"}, {"measurement": "GI50", "setting": "BV-173, BV-173, Leukemia", "value": 9.33, "unit": "µM"}, {"measurement": "IC50", "setting": "BV-173, BV-173, Leukemia", "value": 9.33, "unit": "µM"}, {"measurement": "EC50", "setting": "BXPC-3, BxPC-3, Pancreas", "value": 13, "unit": "µM"}, {"measurement": "GI50", "setting": "BXPC-3, BxPC-3, Pancreas", "value": "> 30", "unit": "µM"}, {"measurement": "IC50", "setting": "BXPC-3, BxPC-3, Pancreas", "value": "> 30", "unit": "µM"}, {"measurement": "EC50", "setting": "BeWo, Placenta", "value": 7.68, "unit": "µM"}, {"measurement": "GI50", "setting": "BeWo, Placenta", "value": "> 30", "unit": "µM"}, {"measurement": "IC50", "setting": "BeWo, Placenta", "value": "> 30", "unit": "µM"}, {"measurement": "EC50", "setting": "C32, Skin (Melanoma)", "value": 19.2, "unit": "µM"}, {"measurement": "GI50", "setting": "C32, Skin (Melanoma)", "value": 15.5, "unit": "µM"}, {"measurement": "IC50", "setting": "C32, Skin (Melanoma)", "value": 19.2, "unit": "µM"}, {"measurement": "EC50", "setting": "[1]", "value": 8.94, "unit": "µM"}, {"measurement": "GI50", "setting": "[1]", "value": 9, "unit": "µM"}, {"measurement": "IC50", "setting": "[1]", "value": 9.03, "unit": "µM"}, {"measurement": "EC50", "setting": "[2]", "value": 12, "unit": "µM"}, {"measurement": "GI50", "setting": "[2]", "value": 11.9, "unit": "µM"}, {"measurement": "IC50", "setting": "[2]", "value": 12, "unit": "µM"}, {"measurement": "EC50", "setting": "CA46, CA46, Lymphoma", "value": 3.83, "unit": "µM"}, {"measurement": "GI50", "setting": "CA46, CA46, Lymphoma", "value": 3.82, "unit": "µM"}, {"measurement": "IC50", "setting": "CA46, CA46, Lymphoma", "value": 3.83, "unit": "µM"}, {"measurement": "EC50", "setting": "CAKI-1, Caki-1, Kidney", "value": 0.17, "unit": "µM"}, {"measurement": "GI50", "setting": "CAKI-1, Caki-1, Kidney", "value": "> 30", "unit": "µM"}, {"measurement": "IC50", "setting": "CAKI-1, Caki-1, Kidney", "value": "> 30", "unit": "µM"}, {"measurement": "EC50", "setting": "CAKI-2, Caki-2, Kidney", "value": 28.8, "unit": "µM"}, {"measurement": "GI50", "setting": "CAKI-2, Caki-2, Kidney", "value": 28.9, "unit": "µM"}, {"measurement": "IC50", "setting": "CAKI-2, Caki-2, Kidney", "value": 29.1, "unit": "µM"}, {"measurement": "EC50", "setting": "CAL-27, Cal 27, Head and Neck", "value": 7.64, "unit": "µM"}, {"measurement": "GI50", "setting": "CAL-27, Cal 27, Head and Neck", "value": 7.62, "unit": "µM"}, {"measurement": "IC50", "setting": "CAL-27, Cal 27, Head and Neck", "value": 7.64, "unit": "µM"}, {"measurement": "EC50", "setting": "[3]", "value": 5.6, "unit": "µM"}, {"measurement": "GI50", "setting": "[3]", "value": 5.78, "unit": "µM"}, {"measurement": "IC50", "setting": "[3]", "value": 5.79, "unit": "µM"}, {"measurement": "EC50", "setting": "CAMA-1, CAMA-1, Breast", "value": "> 30", "unit": "µM"}, {"measurement": "GI50", "setting": "CAMA-1, CAMA-1, Breast", "value": "> 30", "unit": "µM"}, {"measurement": "IC50", "setting": "CAMA-1, CAMA-1, Breast", "value": "> 30", "unit": "µM"}, {"measurement": "EC50", "setting": "CAPAN-1, Capan-1, Pancreas", "value": "> 30", "unit": "µM"}, {"measurement": "GI50", "setting": "CAPAN-1, Capan-1, Pancreas", "value": "> 30", "unit": "µM"}, {"measurement": "IC50", "setting": "CAPAN-1, Capan-1, Pancreas", "value": "> 30", "unit": "µM"}, {"measurement": "EC50", "setting": "[4]", "value": "> 30", "unit": "µM"}, {"measurement": "GI50", "setting": "[4]", "value": "> 30", "unit": "µM"}, {"measurement": "IC50", "setting": "[4]", "value": "> 30", "unit": "µM"}, {"measurement": "EC50", "setting": "CCRF-CEM, CCRFCEM, Leukemia", "value": 11.5, "unit": "µM"}, {"measurement": "GI50", "setting": "CCRF-CEM, CCRFCEM, Leukemia", "value": 11.4, "unit": "µM"}, {"measurement": "IC50", "setting": "CCRF-CEM, CCRFCEM, Leukemia", "value": 11.5, "unit": "µM"}, {"measurement": "EC50", "setting": "CEM/C1, CEM-C1, Leukemia", "value": 3.26, "unit": "µM"}, {"measurement": "GI50", "setting": "CEM/C1, CEM-C1, Leukemia", "value": 3.26, "unit": "µM"}, {"measurement": "IC50", "setting": "CEM/C1, CEM-C1, Leukemia", "value": 3.26, "unit": "µM"}, {"measurement": "EC50", "setting": "CFPAC-1, CFPAC-1, Pancreas", "value": 12.3, "unit": "µM"}, {"measurement": "GI50", "setting": "CFPAC-1, CFPAC-1, Pancreas", "value": 13.4, "unit": "µM"}, {"measurement": "IC50", "setting": "CFPAC-1, CFPAC-1, Pancreas", "value": 13.5, "unit": "µM"}, {"measurement": "EC50", "setting": "[5]", "value": 5.83, "unit": "µM"}, {"measurement": "GI50", "setting": "[5]", "value": 5.81, "unit": "µM"}, {"measurement": "IC50", "setting": "[5]", "value": 5.83, "unit": "µM"}, {"measurement": "EC50", "setting": "CHL-1, CHL-1, Skin (Melanoma)", "value": 14.3, "unit": "µM"}, {"measurement": "GI50", "setting": "CHL-1, CHL-1, Skin (Melanoma)", "value": 14.2, "unit": "µM"}, {"measurement": "IC50", "setting": "CHL-1, CHL-1, Skin (Melanoma)", "value": 14.3, "unit": "µM"}, {"measurement": "EC50", "setting": "[6]", "value": 11.4, "unit": "µM"}, {"measurement": "GI50", "setting": "[6]", "value": 11.1, "unit": "µM"}, {"measurement": "IC50", "setting": "[6]", "value": 11.4, "unit": "µM"}, {"measurement": "EC50", "setting": "CML-T1, CML-T1, Leukemia", "value": 3.69, "unit": "µM"}, {"measurement": "GI50", "setting": "CML-T1, CML-T1, Leukemia", "value": 3.68, "unit": "µM"}, {"measurement": "IC50", "setting": "CML-T1, CML-T1, Leukemia", "value": 3.69, "unit": "µM"}, {"measurement": "EC50", "setting": "COLO 201, Colo 201, Colon", "value": 8.51, "unit": "µM"}, {"measurement": "GI50", "setting": "COLO 201, Colo 201, Colon", "value": 8.45, "unit": "µM"}, {"measurement": "IC50", "setting": "COLO 201, Colo 201, Colon", "value": 8.51, "unit": "µM"}, {"measurement": "EC50", "setting": "COLO 205, Colo 205, Colon", "value": 10.7, "unit": "µM"}, {"measurement": "GI50", "setting": "COLO 205, Colo 205, Colon", "value": 10.7, "unit": "µM"}, {"measurement": "IC50", "setting": "COLO 205, Colo 205, Colon", "value": 10.7, "unit": "µM"}, {"measurement": "EC50", "setting": "COLO 320DM, Colon", "value": 7.72, "unit": "µM"}, {"measurement": "GI50", "setting": "COLO 320DM, Colon", "value": 7.67, "unit": "µM"}, {"measurement": "IC50", "setting": "COLO 320DM, Colon", "value": 7.72, "unit": "µM"}, {"measurement": "EC50", "setting": "[7]", "value": 11.6, "unit": "µM"}, {"measurement": "GI50", "setting": "[7]", "value": 11.6, "unit": "µM"}, {"measurement": "IC50", "setting": "[7]", "value": 11.6, "unit": "µM"}, {"measurement": "EC50", "setting": "[8]", "value": 5.35, "unit": "µM"}, {"measurement": "GI50", "setting": "[8]", "value": 4.93, "unit": "µM"}, {"measurement": "IC50", "setting": "[8]", "value": 5.35, "unit": "µM"}, {"measurement": "EC50", "setting": "COR-L23, COR-L23, Lung - NSCLC", "value": 23.8, "unit": "µM"}, {"measurement": "GI50", "setting": "COR-L23, COR-L23, Lung - NSCLC", "value": 23.6, "unit": "µM"}, {"measurement": "IC50", "setting": "COR-L23, COR-L23, Lung - NSCLC", "value": 23.8, "unit": "µM"}, {"measurement": "EC50", "setting": "[9]", "value": 4.76, "unit": "µM"}, {"measurement": "GI50", "setting": "[9]", "value": 4.61, "unit": "µM"}, {"measurement": "IC50", "setting": "[9]", "value": 4.76, "unit": "µM"}, {"measurement": "EC50", "setting": "CRO-AP2, CRO-AP2, Lymphoma", "value": 6.38, "unit": "µM"}, {"measurement": "GI50", "setting": "CRO-AP2, CRO-AP2, Lymphoma", "value": 6.36, "unit": "µM"}, {"measurement": "IC50", "setting": "CRO-AP2, CRO-AP2, Lymphoma", "value": 6.38, "unit": "µM"}, {"measurement": "EC50", "setting": "[10]", "value": "> 30", "unit": "µM"}, {"measurement": "GI50", "setting": "[10]", "value": "> 30", "unit": "µM"}, {"measurement": "IC50", "setting": "[10]", "value": "> 30", "unit": "µM"}, {"measurement": "EC50", "setting": "Calu-1, Calu1, Lung - NSCLC", "value": 13.9, "unit": "µM"}, {"measurement": "GI50", "setting": "Calu-1, Calu1, Lung - NSCLC", "value": 13.8, "unit": "µM"}, {"measurement": "IC50", "setting": "Calu-1, Calu1, Lung - NSCLC", "value": 13.9, "unit": "µM"}, {"measurement": "EC50", "setting": "Calu-6, Calu6, Lung - NSCLC", "value": 14.5, "unit": "µM"}, {"measurement": "GI50", "setting": "Calu-6, Calu6, Lung - NSCLC", "value": 15.7, "unit": "µM"}, {"measurement": "IC50", "setting": "Calu-6, Calu6, Lung - NSCLC", "value": 16.6, "unit": "µM"}]}
